From US10322995B2, “Substituted cyano cycloalkyl penta-2,4-dienes, cyano cycloalkyl pent-2-en-4-ynes, cyano heterocyclyl penta-2,4-dienes and cyano heterocyclyl pent-2-en-4-ynes as active substances against abiotic plant stress” (BAYER CROPSCIENCE AKTIENGESELLSCHAFT, priority 2014, dated 2019)

What was measured:
Brassica napus (BRSNS) = experiment: In vivo analyses Part C: drought stress, appearance vs stressed control plants in categories (BRSNS); parameters: key: 0: no positive effect; 10: slight positive effect; 20: clear positive effect; 30: strong positive effect; settings: appearance vs stressed control plants after recovery phase, efficacy range of 3-4 pots
Experimental: Seeds of monocotyledonous and dicotyledonous crop plants were sown in sandy loam in plastic or wood-fibre pots, covered with soil or sand and cultivated in a greenhouse under good growth conditions. The test plants were treated at the early leaf stage (BBCH10-BBCH13). To assure uniform water supply before commencement of stress, the potted plants were supplied with water by dam irrigation prior to substance application. The inventive compounds were first formulated as wettable powders (WP) or dissolved in a solvent mixture. The further dilution was effected with water supplemented with 0.2% wetting agent (e.g. agrotin). The finished spray liquor was sprayed onto the green parts of the plant at an equivalent water application rate of 600 I/ha. Substance application was followed immediately by stress treatment of the plants. For this purpose, the wood-fibre pots were transferred in plastic inserts in order to prevent them from subsequently drying out too quickly. Drought stress was induced by gradual drying out under the following conditions: “Day”: 14 hours with illumination at 26-30° C. “Night”: 10 hours without illumination at 18-20° C. The duration of the respective stress phases was guided mainly by the condition of the stressed control plants. It was ended (by re-irrigating and transfer to a greenhouse with good growth conditions) as soon as irreversible damage was observed on the stressed control plants. The end of the stress phase was followed by an about 4-7-day recovery phase, during which the plants were once again kept under good growth conditions in a greenhouse. The duration of the recovery phase was guided mainly by when the trial plants had attained a state which enabled visual scoring of potential effects, and was therefore variable. Once this juncture had been reached, the appearance of the plants treated with test substances was recorded in comparison to the stressed control plants by the following categories: [table] For each substance and dosage, 3-4 pots were treated and evaluated. BRSNS=Brassica napus

[1] = test system: Triticum aestivum (TRZAS); experiment: In vivo analyses Part C: drought stress, appearance vs stressed control plants in categories (TRZAS); parameters: key: 0: no positive effect; 10: slight positive effect; 20: clear positive effect; 30: strong positive effect; settings: appearance vs stressed control plants after recovery phase, efficacy range of 3-4 pots
Experimental: Seeds of monocotyledonous and dicotyledonous crop plants were sown in sandy loam in plastic or wood-fibre pots, covered with soil or sand and cultivated in a greenhouse under good growth conditions. The test plants were treated at the early leaf stage (BBCH10-BBCH13). To assure uniform water supply before commencement of stress, the potted plants were supplied with water by dam irrigation prior to substance application. The inventive compounds were first formulated as wettable powders (WP) or dissolved in a solvent mixture. The further dilution was effected with water supplemented with 0.2% wetting agent (e.g. agrotin). The finished spray liquor was sprayed onto the green parts of the plant at an equivalent water application rate of 600 I/ha. Substance application was followed immediately by stress treatment of the plants. For this purpose, the wood-fibre pots were transferred in plastic inserts in order to prevent them from subsequently drying out too quickly. Drought stress was induced by gradual drying out under the following conditions: “Day”: 14 hours with illumination at 26-30° C. “Night”: 10 hours without illumination at 18-20° C. The duration of the respective stress phases was guided mainly by the condition of the stressed control plants. It was ended (by re-irrigating and transfer to a greenhouse with good growth conditions) as soon as irreversible damage was observed on the stressed control plants. The end of the stress phase was followed by an about 4-7-day recovery phase, during which the plants were once again kept under good growth conditions in a greenhouse. The duration of the recovery phase was guided mainly by when the trial plants had attained a state which enabled visual scoring of potential effects, and was therefore variable. Once this juncture had been reached, the appearance of the plants treated with test substances was recorded in comparison to the stressed control plants by the following categories: [table] For each substance and dosage, 3-4 pots were treated and evaluated. TRZAS=Triticum aestivum

[2] = test system: Triticum aestivum (TRZAS); experiment: In vivo analyses Part A: drought stress, visual damage scoring, efficacy EF (TRZAS); settings: spray application 25 g/ha, efficacy = reduction in damage intensity
Experimental: Seeds of monocotyledonous and dicotyledonous crop plants were sown in sandy loam in wood-fibre pots, covered with soil or sand and cultivated in a greenhouse under good growth conditions. The test plants were treated at the early leaf stage (BBCH10-BBCH13). To assure uniform water supply before commencement of stress, the potted plants were supplied with water by dam irrigation prior to substance application. The inventive compounds, formulated in the form of wettable powders (WP), were sprayed onto the green parts of the plants as an aqueous suspension at an equivalent water application rate of 600 I/ha with addition of 0.2% wetting agent (e.g. agrotin). Substance application was followed immediately by stress treatment of the plants. For this purpose, the pots were transferred in plastic inserts in order to prevent them from subsequently drying out too quickly. Drought stress was induced by gradual drying out under the following conditions: “Day”: 14 hours with illumination at 26° C. “Night”: 10 hours without illumination at 18° C. The duration of the respective stress phases was guided mainly by the condition of the stressed control plants. It was ended (by re-irrigating and transfer to a greenhouse with good growth conditions) as soon as irreversible damage was observed on the stressed control plants. The end of the stress phase was followed by an about 4-7-day recovery phase, during which the plants were once again kept under good growth conditions in a greenhouse. The duration of the recovery phase was guided mainly by when the trial plants had attained a state which enabled visual scoring of potential effects, and was therefore variable. Once this juncture was reached, the intensities of damage were scored visually in comparison to untreated, unstressed controls of the same age. The damage intensity was at first assessed in percent. […]

For `CCC(C=CC(O)(c1ccccc1)C1(C#N)CC1)=CC(=O)O` (racemic) [I.2-201], the “Effect (BRSNS)” value (Brassica napus (BRSNS); dosage 250 g/ha) was 10-30 and the “Effect (TRZAS)” value ([1]; dosage 25 g/ha) was 10.

In the case of `CCOC(=O)/C=C(\C#CC(O)(C(C)C)C1(C#N)CC1)C1CC1` (stereo not drawn) [I.1-124, Ethyl (2Z)-6-(1-cyanocyclopropyl)-3-cyclopropyl-6-hydroxy-7-methyloct-2-en-4-ynoate], the “EF [%] (TRZAS)” value [2] is reported as greater than 5%.

For `CCOC(=O)/C=C(/C)C#CC(O)(C(C)C)C1(C#N)CC1` (stereo not drawn) [I.1-136], the “EF [%] (TRZAS)” value [2] was greater than 5%.

In the case of `CC/C(C#CC(O)(C1CCC1)C1(C#N)CC1)=C/C(=O)OC` (stereo not drawn) [I.1-648], the “Effect (BRSNS)” value (Brassica napus (BRSNS); dosage 25 g/ha) is reported as 30 and the “Effect (TRZAS)” value ([1]; dosage 250 g/ha) is reported as 10-20.
